Patent publication US20240109915A1, “NOVEL ACC INHIBITORS” (Pfizer Inc., priority 2022, published 2024)

The molecules below were run against recombinant human ACC1 (rhACC1) (Homo sapiens (Human), UniProt Q13085) (assay: Transcreener ADP detection FP assay, direct inhibition of rhACC1). Settings: Geomean IC50, n ≥ 2 unless * then n = 1; 50 μM ATP, 30 μM acetyl-CoA.
Assay type: biochemical
Method: The direct inhibition of ACC1 for the compounds of the present invention was determined using preparations of recombinant human ACC1 (rhACC1) (SEQ ID NO. 1)
Two liters of SF9 cells, infected with recombinant baculovirus containing full length human ACC1 cDNA, were suspended in ice-cold lysis buffer (25 mM Tris, pH 7.5; 150 mM NaCl; 10% glycerol; 5 mM imidazole (EMD Bioscience; Gibbstown, NJ); 2 mM TCEP (BioVectra; Charlottetown, Canada); Benzonase nuclease (10000 U/100 g cell paste; Novagen; Madison, WI); EDTA-free protease inhibitor cocktail (1 tab/50 ml; Roche Diagnostics; Mannheim, Germany). Cells were lysed by 3 cycles of freeze-thaw and centrifuged at 40,000×g for 40 minutes (4° C.). Supernatant was directly loaded onto a HisTrap FF crude column (GE Healthcare; Piscataway, NJ) and eluted with an imidazole gradient up to 0.5 M over 20 column volumes (CV). ACC1-containing fractions were pooled and diluted 1:5 with 25 mM Tris, pH 7.5, 2 mM TCEP, 10% glycerol and direct loaded onto a CaptoQ (GE Healthcare) column and eluted with an NaCl gradient up to 1 M over 20 CV's. Phosphate groups were removed from purified ACC1 by incubation with lambda phosphatase (100 U/10 μM target protein; New England Biolabs; Beverly, MA) for 14 hours at 4° C.; okadaic acid was added (1 μM final concentration; Roche Diagnostics) to inhibit the phosphatase. Purified ACC1 was exchanged into 25 mM Tris, pH 7.5, 2 mM TCEP, 10% glycerol, 0.5 M NaCl by 6 hour dialysis at 4° C. Aliquots were prepared and frozen at −80° C.
Measurement of rhACC1 Inhibition rhACC1 was assayed in a Corning #3820 (Corning, Tewksbury, MA) 384-well plate using the Transcreener ADP detection FP assay kit (Bellbrook Labs, Madison, Wisconsin) using the manufacturer's recommended conditions for a 50 μM ATP reaction. The final conditions for the assay were 50 mM HEPES, pH 7.2, 10 mM MgCl2, 7.5 mM tripotassium citrate, 2 mM DTT, 0.1 mg/mL BSA, 30 μM acetyl-CoA, 50 μM ATP, and 10 mM KHCO3. Typically, a […] was run for 60 min at room temp, and 10 μl of Transcreener stop and detect buffer was added and the combination incubated at room temp for an overnight (18 hours). The data was acquired on an Envision Fluorescence reader (PerkinElmer) using a 620 excitation Cy5 FP general dual mirror, 620 excitation Cy5 FP filter, 688 emission (S) and a 688 (P) emission filter.

| IC50 | Structure (SMILES) |
| --- | --- |
| 30.1 nM | CCOc1cnc2c(C)cc(C(=O)N3CCC4(CC3)CC(=O)c3nc(C(C)(C)C)sc3C4)cc2c1 [Example 20, 2-(tert-butyl)-1′-(3-ethoxy-8-methylquinoline-6-carbonyl)-5H-spiro[benzo[d]thiazole-6,4′-piperidin]-4(7H)-one] |
| 3.6 nM | CSc1cnc2c(C)cc(C(=O)N3CCC4(CC3)CC(=O)c3nc(C(C)(C)C)sc3C4)cc2c1 [Example 21, 2-(tert-butyl)-1′-(8-methyl-3-(methylthio)quinoline-6-carbonyl)-5H-spiro[benzo[d]thiazole-6,4′-piperidin]-4(7H)-one] |
| 0.9 nM | CN(C)c1cc(C(=O)N2CCC3(CC2)CC(=O)c2nc(C(C)(C)C)sc2C3)cc(-c2ccc(C(N)=O)cc2)n1 [Example 22, 4-(4-(2-(tert-butyl)-4-oxo-4,7-dihydro-5H-spiro[benzo[d]thiazole-6,4′-piperidine]-1′-carbonyl)-6-(dimethylamino)pyridin-2-yl)benzamide] |
| 7.2 nM | COc1cc(C(=O)N2CCC3(CC2)CC(=O)c2nc(C(C)(C)C)sc2C3)cc(-c2ccc(C(N)=O)cc2)n1 [Example 23, 4-(4-(2-(tert-butyl)-4-oxo-4,7-dihydro-5H-spiro[benzo[d]thiazole-6,4′-piperidine]-1′-carbonyl)-6-methoxypyridin-2-yl)benzamide] |
| 3.1 nM | CNc1nccc2c(C)cc(C(=O)N3CCC4(CC3)CC(=O)c3nc(C(C)(C)C)sc3C4)cc12 [Example 24, 2-(tert-butyl)-1′-(5-methyl-1-(methylamino)isoquinoline-7-carbonyl)-5H-spiro[benzo[d]thiazole-6,4′-piperidin]-4(7H)-one] |
| 6.6 nM | Cc1cc(C(=O)N2CCC3(CC2)CC(=O)c2nc(C(C)(C)C)sc2C3)cc2c(C3CC3)nccc12 [Example 25, 2-(tert-butyl)-1′-(1-cyclopropyl-5-methylisoquinoline-7-carbonyl)-5H-spiro[benzo[d]thiazole-6,4′-piperidin]-4(7H)-one] |
| 29.5 nM | Cc1cnc(C)c2cc(C(=O)N3CCC4(CC3)CC(=O)c3nc(C(C)(C)C)sc3C4)ccc12 [Example 27, 2-(tert-butyl)-1′-(1,4-dimethylisoquinoline-7-carbonyl)-5H-spiro[benzo[d]thiazole-6,4′-piperidin]-4(7H)-one] |
| 6.2 nM | COc1cc(C(=O)N2CCC3(CC2)CC(=O)c2nc(C(C)(C)C)sc2C3)cc2c(C)nccc12 [Example 28, 2-(tert-butyl)-1′-(5-methoxy-1-methylisoquinoline-7-carbonyl)-5H-spiro[benzo[d]thiazole-6,4′-piperidin]-4(7H)-one] |
| 11.1 nM | CCc1nccc2c(OC)cc(C(=O)N3CCC4(CC3)CC(=O)c3nc(C(C)(C)C)sc3C4)cc12 [Example 29, 2-(tert-butyl)-1′-(1-ethyl-5-methoxyisoquinoline-7-carbonyl)-5H-spiro[benzo[d]thiazole-6,4′-piperidin]-4(7H)-one] |
| 4.6 nM | CC(C)Nc1ccc2ccc(C(=O)N3CCC4(CC3)CC(=O)c3nc(C(C)(C)C)sc3C4)cc2n1 [Example 30, 2-(tert-butyl)-1′-(2-(isopropylamino)quinoline-7-carbonyl)-5H-spiro[benzo[d]thiazole-6,4′-piperidin]-4(7H)-one] |
| 4 nM | CC(C)(C)c1nc2c(s1)CC1(CCN(C(=O)c3ccc4ccc(NC5CCC5)nc4c3)CC1)CC2=O [Example 31, 2-(tert-butyl)-1′-(2-(cyclobutylamino)quinoline-7-carbonyl)-5H-spiro[benzo[d]thiazole-6,4′-piperidin]-4(7H)-one] |
| 3.5 nM | CCNc1ccc2ccc(C(=O)N3CCC4(CC3)CC(=O)c3nc(C(C)(C)C)sc3C4)cc2n1 [Example 32, 2-(tert-butyl)-1′-(2-(ethylamino)quinoline-7-carbonyl)-5H-spiro[benzo[d]thiazole-6,4′-piperidin]-4(7H)-one] |
| 1.3 nM | Cc1cc(C(=O)N2CCC3(CC2)CC(=O)c2nc(C(C)(C)C)sc2C3)c2[nH]ncc2c1Cl [Example 34, 2-(tert-butyl)-1′-(4-chloro-5-methyl-1H-indazole-7-carbonyl)-5H-spiro[benzo[d]thiazole-6,4′-piperidin]-4(7H)-one] |
| 2.6 nM | Cc1cc(C(=O)N2CCC3(CC2)CC(=O)c2nc(C(C)(C)C)sc2C3)c2[nH]ncc2c1C [Example 35, 2-(tert-butyl)-1′-(4,5-dimethyl-1H-indazole-7-carbonyl)-5H-spiro[benzo[d]thiazole-6,4′-piperidin]-4(7H)-one] |
| 23.2 nM | COc1c(C)cc(C(=O)N2CCC3(CC2)CC(=O)c2nc(C(C)(C)C)sc2C3)c2[nH]ncc12 [Example 36, 2-(tert-butyl)-1′-(4-methoxy-5-methyl-1H-indazole-7-carbonyl)-5H-spiro[benzo[d]thiazole-6,4′-piperidin]-4(7H)-one] |
| 6.4 nM | CCNc1ccc2c(C)cc(C(=O)N3CCC4(CC3)CC(=O)c3nc(C(C)(C)C)sc3C4)cc2n1 [Example 39, 2-(tert-butyl)-1′-(2-(ethylamino)-5-methylquinoline-7-carbonyl)-5H-spiro[benzo[d]thiazole-6,4′-piperidin]-4(7H)-one] |
| 1.5 nM | CNc1ccc2c(OC)cc(C(=O)N3CCC4(CC3)CC(=O)c3nc(C(C)(C)C)sc3C4)cc2n1 [Example 40, 2-(tert-butyl)-1′-(5-methoxy-2-(methylamino)quinoline-7-carbonyl)-5H-spiro[benzo[d]thiazole-6,4′-piperidin]-4(7H)-one] |
| 15.3 nM | COc1ccnc2c(C)cc(C(=O)N3CCC4(CC3)CC(=O)c3nc(C(C)(C)C)sc3C4)cc12 [Example 41, 2-(tert-butyl)-1′-(4-methoxy-8-methylquinoline-6-carbonyl)-5H-spiro[benzo[d]thiazole-6,4′-piperidin]-4(7H)-one] |
| 5.2 nM | COc1cc(C(=O)N2CCC3(CC2)CC(=O)c2nc(C(C)(C)C)sc2C3)cc2c(OC)cncc12 [Example 43, 2-(tert-butyl)-1′-(4,8-dimethoxyisoquinoline-6-carbonyl)-5H-spiro[benzo[d]thiazole-6,4′-piperidin]-4(7H)-one] |

| IC50 | Structure (SMILES) |
| --- | --- |
| 7.6 nM | Cc1n[nH]c2c(C)cc(C(=O)N3CCC4(CC3)CC(=O)c3nc(C(C)(C)C)sc3C4)cc12 [Example 45] |
| 85.9 nM | COc1nccc2ccc(C(=O)N3CCC4(CC3)CC(=O)c3nc(C(C)(C)C)sc3C4)cc12 [Example 46] |
| 10000 nM | Cc1cc(C(=O)N2CCC3(CC2)CC(=O)c2nc(C(C)(C)C)sc2C3)cc2cccnc12 [Example 48] |
| 6.4 nM | COc1cc(C(=O)N2CCC3(CC2)CC(=O)c2nc(C(C)(C)C)sc2C3)cc2c(C)n[nH]c12 [Example 49] |
| 5.4 nM | Cc1cc(C(=O)N2CCC3(CC2)CC(=O)c2nc(C(C)(C)C)sc2C3)cc2c(Cl)n[nH]c12 [Example 50] |
| 22.4 nM | Cc1c[nH]c2cc(C(=O)N3CCC4(CC3)CC(=O)c3nc(C(C)(C)C)sc3C4)ccc12 [Example 51] |
| 2.4 nM | Cc1cc(C(=O)N2CCC3(CC2)CC(=O)c2nc(C(C)(C)C)sc2C3)c(O)c2ccccc12 [Example 52] |
| 18.1 nM | CNc1cc2ccccc2cc1C(=O)N1CCC2(CC1)CC(=O)c1nc(C(C)(C)C)sc1C2 [Example 53] |
| 3.5 nM | Cc1ccc(C)c2[nH]c(C(=O)N3CCC4(CC3)CC(=O)c3nc(C(C)(C)C)sc3C4)cc12 [Example 55] |
| 5.8 nM | COc1ccc(C)c2[nH]c(C(=O)N3CCC4(CC3)CC(=O)c3nc(C(C)(C)C)sc3C4)cc12 [Example 56] |
| 19.7 nM | CC(C)(C)c1nc2c(s1)CC1(CCN(C(=O)c3cc(O)c4ccccc4c3)CC1)CC2=O [Example 57] |
| 7.1 nM | COc1ccc2ccc(C(=O)N3CCC4(CC3)CC(=O)c3nc(C(C)(C)C)sc3C4)cc2c1 [Example 58] |
| 27.3 nM | COc1cccc2cc(C(=O)N3CCC4(CC3)CC(=O)c3nc(C(C)(C)C)sc3C4)[nH]c12 [Example 60] |
| 3.6 nM | Cc1cc(C(=O)N2CCC3(CC2)CC(=O)c2nc(C(C)(C)C)sc2C3)cc2[nH]ccc12 [Example 62] |
| 19.7 nM | CC(C)(C)c1nc2c(s1)CC1(CCN(C(=O)c3ccc4ccccc4c3O)CC1)CC2=O [Example 63] |
| 11.8 nM | Cc1c[nH]c2ccc(C(=O)N3CCC4(CC3)CC(=O)c3nc(C(C)(C)C)sc3C4)cc12 [Example 64] |
| 13 nM | CC(C)(C)c1nc2c(s1)CC1(CCN(C(=O)c3ccc4[nH]cc(Cl)c4c3)CC1)CC2=O [Example 65] |
| 115 nM | COc1cccc2ncc(C(=O)N3CCC4(CC3)CC(=O)c3nc(C(C)(C)C)sc3C4)cc12 [Example 66] |
